This passage reports IC50 results from BindingDB's records for patent WO2021069705 (MONTE ROSA THERAPEUTICS AG, 2021).

This assay addresses Protein cereblon (Homo sapiens, UniProt Q96SW2). The assay is described as follows: Protocol for Fluorescent Polarization assay. How it is done: Compound activity was monitored in a fluorescence polarization (FP) homogeneous assay using 1 -[5-({2-[2-(2-{[2-(2,6-dioxopiperidin-3-yl)-1 ,3-dioxo-2,3-dihydro-1 H-isoindol-4-yl]oxy}acetamido)ethoxy]ethyl}carbamoyl)pentyl]-3,3-dimethyl-2-[(1 E,3E)-5-[(2E)-1 ,3,3-trimethyl-5-sulfo-2,3-dihydro-1 H-indol-2-ylidene]penta-1 ,3-dien-1 -yl]-3H-indol-1 -ium-5-sulfonate as a fluorescent probe. Unless otherwise stated, all reagents were purchased from Sigma Aldrich. Enzymatic reactions were conducted in Perkin-Elmer Black 384 well ProxiPlate Plus (catalogue no. 6008269) in 10 μL total volume. Full length wild-type cereblon CRBN (80.0 nM, 10 μL) was incubated in assay buffer containing 20 mM HEPES (pH 8.0), 1 50 NaCl, 0.5 mM TCEP and 0.05% Tween 20 in the presence or absence of compound (300 nL). Inhibitors were stored as 10 mM DMSO stocks in an inert environment (low humidity, dark, low oxygen, room temperature) using the Storage Pod System. Compounds and DMSO were dispensed using the Echo E5XX (Labcyte Inc. USA) to give concentrations from 300 to 0.937 or 3000 to 9.3 nM in a 1 2 data point curve. […] FP was measured after a period of 1 2 hours using a Pherastar plate reader (BMG Labtech, Germany) exciting at 590 nm and measuring the amount of parallel and perpendicular light at 675 nm. […]

Chain of Protein cereblon (Q96SW2 whole entry): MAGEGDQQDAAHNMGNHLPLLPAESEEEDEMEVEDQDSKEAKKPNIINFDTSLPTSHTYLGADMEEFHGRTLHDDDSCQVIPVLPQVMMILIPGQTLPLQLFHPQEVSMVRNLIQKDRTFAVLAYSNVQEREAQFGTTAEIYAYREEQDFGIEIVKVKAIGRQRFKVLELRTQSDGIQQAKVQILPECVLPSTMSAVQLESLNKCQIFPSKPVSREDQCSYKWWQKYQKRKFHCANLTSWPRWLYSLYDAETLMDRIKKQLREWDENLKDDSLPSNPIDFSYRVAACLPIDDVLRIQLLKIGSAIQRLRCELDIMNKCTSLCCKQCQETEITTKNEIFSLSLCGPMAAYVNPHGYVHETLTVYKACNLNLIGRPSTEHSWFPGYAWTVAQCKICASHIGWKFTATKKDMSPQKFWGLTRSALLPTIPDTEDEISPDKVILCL

Regarding `O=C1CCC(N2Cc3ccc(CNC(=O)Nc4ccc(Br)cc4)cc3C2=O)C(=O)N1` (stereo unspecified) [WO2021069705, Compound 9], the IC50 turned out to be 0.617 µM.

One may read the IC50 as the concentration that gives 50% inhibition.
